{"source": "patent US10227371B2", "about": "“Polymorphs and new solid states of tiacumicin B” (XELLIA PHARMACEUTICALS APS, priority 2014, dated 2019)", "type_in_all_cases": "physicochemical", "key": {"[1]": {"assay": "Stability of high purity amorphous Tiacumicin material on storage (XRPD)", "procedure": "Stoe Stadi P; Mythen1K Detector; Cu-Kα1 radiation; standard measurement conditions: transmission; 40 kV and 40 mA tube power; curved Ge monochromator; 0.02°2θ step size, 12 s step time, 1.5-50.5°2θ scanning range; detector mode: step scan; 1°2θ detector step; standard sample preparation: 10 to 20 mg sample was placed between two acetate foils; sample holder: Stoe transmission sample holder; the sample was rotated during the measurement. Filenames of patterns recorded on this instrument consist of a three-digit number followed by a letter.\nBruker D8; Copper Ka radiation, 40 kV/40 mA; LynxEye detector, 0.02°2θ step size, 37 s step time.\nThe samples were generally measured without any special treatment other than the application of slight pressure to get a flat surface. Silicon single crystal sample holder types: a) standard holder for polymorphism screening, 0.1 mm deep, less than 20 mg sample required; b) 0.5 mm deep, 12 mm cavity diameter for c. 40 mg; c) 1.0 mm deep, 12 mm cavity diameter for c. 80 mg. All samples measured on the Bruker D8 are rotated during the measurement.\nSeveral samples of high purity amorphous Tiacumicin B material were stored at 40° C./75% relative humidity.\nSeveral samples of high purity amorphous Tiacumicin B material were stored at room temperature under normal light conditions."}, "[2]": {"assay": "Hygroscopicity / water uptake of high purity amorphous Tiacumicin material", "source_text": "Thus the high purity amorphous Tiacumicin material is relatively stable with respect to crystallization and suitable for long-term storage (e.g storage for 3 months, 6 months, 9 months etc.)."}, "[3]": {"assay": "XRPD of Tiacumicin solvate forms during storage", "conditions": "FIG. 8A / FIG. 9A", "source_text": "FIG. 8A: XRPD of the Tiacumicin solvate form a during storage. FIG. 9A: XRPD of the Tiacumicin solvate form β during storage. The obtained material comprised 16% w/w acetic acid as measured by TG-FTIR. The obtained material comprised 9% w/w isopropylacetate as measured by TG-FTIR."}}, "data": [{"smiles": "CCc1c(Cl)c(O)c(Cl)c(O)c1C(=O)O[C@H]1[C@H](O)[C@H](OC)[C@H](OC/C2=C\\C=C\\C[C@H](O)/C(C)=C/[C@H](CC)[C@@H](O[C@@H]3OC(C)(C)[C@@H](OC(=O)C(C)C)[C@H](O)[C@@H]3O)/C(C)=C/C(C)=C/C[C@@H]([C@@H](C)O)OC2=O)O[C@@H]1C", "note": "[Tiacumicin B]", "values": [{"measurement": "Suitability for storage (stability with respect to crystallization)", "setting": "[1]; as demonstrated in example 7", "value": "suitable for storage"}, {"measurement": "Solid state by XRPD after storage", "setting": "[1]; room temperature storage, at 3 months", "value": "amorphous material"}, {"measurement": "Solid state by XRPD after storage", "setting": "[1]; stored at 40° C./75% relative humidity, XRPDs at start, 24 hours, 7 days and 1 month", "value": "amorphous material"}, {"measurement": "Solid state by XRPD after storage", "setting": "[1]; stored at room temperature under normal light conditions, XRPDs at start, 1 month and 2 months", "value": "amorphous material"}, {"measurement": "Deliquescence", "setting": "[2]", "value": "not deliquescent"}, {"measurement": "Hygroscopicity (water uptake)", "setting": "[2]; FIG. 7C", "value": "hygroscopic with near linear water uptake"}]}, {"smiles": "CCc1c(Cl)c(O)c(Cl)c(O)c1C(=O)O[C@H]1[C@H](O)[C@H](OC)[C@H](OC/C2=C\\C=C\\C[C@H](O)/C(C)=C/[C@H](CC)[C@@H](O[C@@H]3OC(C)(C)[C@@H](OC(=O)C(C)C)[C@H](O)[C@@H]3O)/C(C)=C/C(C)=C/C[C@@H]([C@@H](C)O)OC2=O)O[C@@H]1C", "note": "[form α of Tiacumicin B, Tiacumicin B]", "values": [{"measurement": "Suitability for storage (XRPD during storage)", "setting": "[3]", "value": "storage suitable"}]}]}
